In the supplement of paper PMC11061612:

Experiments:
[1] = tested on: KURAMOCHI (Ovarian Carcinoma); assay: combination Emax (second highest fraction inhibited in the dose matrix, 72 h); higher = more inhibition; extreme values may be limits of the assay
Outline: (§1)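 Bliss excess equals the observed combination effect minus the expected value EA + EB − EA·EB, where EA and EB are the effects of each agent alone. Combination Emax is the second-highest inhibition within the matrix. Inhibition was scaled from CellTiter-Glo 2.0 luminescence, with 0 set by vehicle wells and 1 by blank wells, after 72 hours of two-drug dosing of cells plated in 1536-well plates.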

[2] = tested on: KP-1N (Pancreatic Carcinoma); assay: as above
Outline: as §1

[3] = tested on: Daoy (Other Solid Carcinomas); assay: as above
Outline: as §1

[4] = tested on: RO82-W-1 (Thyroid Gland Carcinoma); assay: as above
Outline: as §1

[5] = tested on: LNCaP-Clone-FGC (Prostate Carcinoma); assay: as above
Outline: as §1

[6] = tested on: HT-1376 (Bladder Carcinoma); assay: as above
Outline: as §1

[7] = tested on: SNU-5 (Gastric Carcinoma); assay: as above
Outline: as §1

T98G (Glioblastoma) = assay: as above
Outline: as §1

[8] = tested on: Ramos-2G6-4C10 (Burkitt's Lymphoma); assay: as above
Outline: as §1

[9] = tested on: Hs-578-T (Breast Carcinoma); assay: as above
Outline: as §1

[10] = tested on: LS-180 (Colorectal Carcinoma); assay: as above
Outline: as §1

[11] = tested on: NCI-H1869 (Non-Small Cell Lung Carcinoma); assay: as above
Outline: as §1

[12] = tested on: CAL-148 (Breast Carcinoma); assay: as above
Outline: as §1

[13] = tested on: NCI-H1869 (Non-Small Cell Lung Carcinoma); assay: Bliss excess, mean over the matrix (fraction); higher = more synergy
Outline: as §1

| Structure (SMILES) | combination Emax [1] | combination Emax [2] | combination Emax [3] | combination Emax [4] | combination Emax [5] | combination Emax [6] | combination Emax [7] | combination Emax (T98G (Glioblastoma)) | combination Emax [8] | combination Emax [9] | combination Emax [10] | combination Emax [11] | combination Emax [12] | Bliss excess [13] |
| --- | --- | --- | --- | --- | --- | --- | --- | --- | --- | --- | --- | --- | --- | --- |
| CN(C)CCCOc1ccc(-c2ccc3ncc4c(c3c2)n(C2CCOCC2)c(=O)n4C)cn1 [AZD0156] + O=C(c1cc(Cc2n[nH]c(=O)c3ccccc23)ccc1F)N1CCN(C(=O)C2CC2)CC1 [Olaparib] (first compound max 3 µM, partner max 3 µM) | 0.152 | 0.277 | 0.427 | 0.313 | 0.639 | 0.115 | 0.439 | 0.287 | 0.745 | 0.519 | 0.24 | 0.19 | 0.604 | -0.0306 |
| C=CCn1c(=O)c2cnc(Nc3ccc(N4CCN(C)CC4)cc3)nc2n1-c1cccc(C(C)(C)O)n1 [AZD1775] + C1CN(CCC1(C(=O)N[C@@H](CCO)C2=CC=C(C=C2)Cl)N)C3=NC=NC4=C3C=CN4 [Capivasertib] (first compound max 3 µM, partner max 3 µM) | 0.625 | 0.633 | 0.999 | 0.471 | 1 | 0.355 | 0.7 | 0.785 | 0.99 | 0.841 | 0.734 | 0.388 | 0.92 | 0.0342 |
| CC1(C)CCC(CN2CCN(c3ccc(C(=O)NS(=O)(=O)c4ccc(NCC5CCOCC5)c([N+](=O)[O-])c4)c(Oc4cnc5[nH]ccc5c4)c3)CC2)=C(c2ccc(Cl)cc2)C1 [Venetoclax] + C[C@@H](Nc1cc(F)cc(F)c1)c1cc(C(=O)N(C)C)cc2c(=O)cc(N3CCOCC3)oc12 [AZD8186] (first compound max 1 µM, 7x7, partner max 3 µM) | 0.306 | 0.235 | 0.176 | 0.217 | 0.809 | 0.0567 | 0.406 | 0.411 | 0.221 | 0.734 | 0.184 | – | 0.263 | – |
| CC1(C)CCC(CN2CCN(c3ccc(C(=O)NS(=O)(=O)c4ccc(NCC5CCOCC5)c([N+](=O)[O-])c4)c(Oc4cnc5[nH]ccc5c4)c3)CC2)=C(c2ccc(Cl)cc2)C1 [Venetoclax] + Cc1cc2ncnn2cc1Nc1ncc2c(n1)n(C1CCOCC1)c(=O)n2C [AZD7648] (first compound max 1 µM, 7x7, partner max 10 µM) | 0.477 | 0.108 | 0.172 | 0.224 | 0.423 | 0.193 | 0.325 | 0.352 | 0.289 | 0.831 | 0.275 | – | 0.447 | – |
| CC1(C)CCC(CN2CCN(c3ccc(C(=O)NS(=O)(=O)c4ccc(NCC5CCOCC5)c([N+](=O)[O-])c4)c(Oc4cnc5[nH]ccc5c4)c3)CC2)=C(c2ccc(Cl)cc2)C1 [Venetoclax] + Cn1cnc2c(F)c(Nc3ccc(Br)cc3Cl)c(C(=O)NOCCO)cc21 [Selumetinib] (first compound max 1 µM, 7x7, partner max 3 µM) | 0.502 | 0.191 | 0.0883 | 0.116 | 0.187 | 0.163 | 0.453 | 0.163 | 0.035 | 0.822 | 0.476 | – | 0.248 | – |
